# Experimental data reported in patent publication US20250276116A1, “METHODS OF […] DUE TO EXTR[…] OXYGENATION” (Tufts Medical Center, Inc., priority 2021, published 2025).
# “Also recorded” adds a separate entry of the source.
# Experiments:
# [1] = tested on: ischemia-reperfusion injury (AMI, LAD occlusion); assay: Swine AMI model: intracoronary elamipretide before VA-ECMO, reperfusion delayed 30 minutes, then 180 minutes of reperfusion; type: in vivo
# Experimental: To begin exploring whether stabilizing CL activity can limit myocardial infarct size during VA-ECMO support for AMI, we employed an over-the-wire coronary angioplasty balloon to delivery elamipretide into the area at risk while maintaining occlusion of the LAD. We treated adult male swine with a single IC injection of either elamipretide (0.05 ug/kg/minute IC over 10 minutes) or vehicle prior to initiating VA-ECMO and then delayed coronary reperfusion for 30 minutes, thereby allowing the drug to reach the area at risk and stabilize CL. Elamipretide was continued as an IV infusion (0.05 ug/kg/minute) during 180 minutes of reperfusion. […] Elamipretide dosing was based on prior reports (Kloner et al., J. Am. Heart Assoc. 1(3):e001644, 2012; Gibson et al., Eur. Heart J. 37(16):1296-1303, 2016).
# [2] = tested on: LV infarct scar after AMI; assay: Late-term outcomes in swine 28 days after AMI with VA-ECMO, with or without cardioprotective drug; type: in vivo; conditions: at 30 days; VA-ECMO + elamipretide vs reperfusion alone or VA-ECMO alone before reperfusion; FIG. 6
# Experimental: To explore late-term outcomes after VA-ECMO with or without cardioprotective drug therapy in AMI, we decannulated, recovered, and monitored swine for 28 days after peripheral cannulation for VA-ECMO support. Adult male swine were subjected to coronary occlusion followed by reperfusion alone or VA-ECMO before reperfusion for 180 minutes. In a separate group, swine were treated with a cardioprotective agent before initiation of VA-ECMO with a 30-minute delay to reperfusion. After 28 days, we identified for the first time that compared to reperfusion alone, VA-ECMO increases infarct scar size and impairs LV function after AMI (FIGS. 5A and 5B). […] These findings support our central hypothesis that VA-ECMO promotes LV scar after AMI and further that treatment with a cardioprotective agent reduces LV scar size 30 days after AMI, which may have broad reaching implications for any patient with acute myocardial infarction or patients at risk of developing cardiac impairment while receiving VA-ECMO. Broad groups of patients may be treated using this approach including, e.g., all AMI patients and all patients treated with VA-ECMO. Indications include, for example, cardiogenic shock, heart failure, lung failure, myocarditis, trauma, and arrhythmia. […] (FIG. 6).
# [3] = tested on: cardiolipin; assay: Mitochondrial cardiolipin in the infarct zone, swine IRI with ECMO / EC-Pella (FIGS. 9C-9D); type: in vivo; conditions: to a similar degree as pre-emptive ECPella
# Experimental: Ischemia-reperfusion injury (IRI) was induced in adult swine via percutaneous occlusion of the left anterior descending artery (LAD) for 90 minutes, followed by activation of either ECMO alone for 30 minutes or EC-Pella for 45 minutes with persistent LAD occlusion. All groups underwent 180 minutes of reperfusion (n=4-6/group). To study whether the sequence of device activation impacts infarct size, we compared activation of ECMO alone for 30 minutes followed by simultaneous Impella CP for 15 minutes (Bailout EC-Pella) versus Impella CP activation for 30 minutes followed by simultaneous ECMO for 15 minutes (Pre-emptive EC-Pella) before reperfusion. LV hemodynamics and ventriculo-arterial (VA) coupling were assessed.
# Compared to IRI and ECMO alone, EC-Pella decreased PVA when applied as pre-emptive ECPella but not Bailout ECPella (FIG. 7). Both EC-Pella configurations decreased infarct size (FIG. 8A), increased cardioprotective signaling via the reperfusion injury salvage kinase pathway (FIG. 8B), and reduced apoptosis and pro-apoptotic signaling (FIG. 8C). Pre-emptive, but not bailout, ECPella preserved mitochondrial […] tafazzin levels (FIGS. 9A-B), increased mitochondrial cardiolipin levels (FIG. 9C), and reduced the ratio of immature: mature cardiolipin (MLCL: CL ratio; FIG. 9D) within the infarct zone compared to ECMO alone.
# [4] = tested on: anterior ST-segment elevation myocardial infarction; conditions: IV elamipretide given before reperfusion; cited from earlier work
# [5] = elamipretide plus VA-ECMO, FIG. 4C
substance,measurement,setting,value
"D-Arg-2′,6′-Dmt-Lys-Phe-NH2 [elamipretide]",reduction of infarct size compared to IRI plus VA-ECMO support,"[1]; adult male swine, 0.05 ug/kg/minute IC over 10 minutes before VA-ECMO, reperfusion delayed 30 minutes, IV infusion during 180 minutes reperfusion, vs vehicle",70%
same,reduction of infarct size compared to IRI alone,"[1]; adult male swine, elamipretide IC before VA-ECMO, reperfusion delayed 30 minutes",55%
same,infarct size compared to reperfusion without VA-ECMO (in words),[1]; elamipretide before initiation of VA-ECMO,significantly reduces infarct size
same,MLCL:CL ratio in the infarct zone,"[1]; elamipretide plus VA-ECMO, FIG. 4B",decreased
same,H202 levels in the infarct zone,[1]; [5],decreased
same,mitochondrial protease activity in the infarct zone,[1]; [5],decreased
same,ETC complex function,"[1]; elamipretide plus VA-ECMO, FIG. 4E",improved ETC complex function
same,"infarct size compared to IRI alone, elamipretide without VA-ECMO","[1]; elamipretide treatment without VA-ECMO, FIG. 4A",failed to reduce infarct size; also recorded: did not reduce infarct size
same,infarct (LV) scar size,[2],reduced infarct scar size; also recorded: can limit LV scar size
same,mitochondrial cardiolipin levels in the infarct zone,[3]; FIG. 9C,increases cardiolipin
same,mono-lysl cardiolipin: mature cardiolipin (MLCL:CL) ratio in the infarct zone,[3]; FIG. 9D,reduces
same,infarct size in humans (EMBRACE-STEMI Trial),[4],failed to reduce infarct size
